Assay results as given in publication PMC5564600 (Oncotarget, 2017).

Key:
Assay in all cases: biochemical
Format in all cases: binding
panel of 442 kinases [1] = molecular target: T1, panel of 442 kinases (Homo sapiens, UniProt Q13237); settings: kinase PRKG2; for remaining activity at 1 µM: read-out: PRKG2 (% of control at 1 µM)
T1 construct: purchased Ambit Biosciences (scanMAXX KINOMEscan)
T1 sequence (Q13237 1-762): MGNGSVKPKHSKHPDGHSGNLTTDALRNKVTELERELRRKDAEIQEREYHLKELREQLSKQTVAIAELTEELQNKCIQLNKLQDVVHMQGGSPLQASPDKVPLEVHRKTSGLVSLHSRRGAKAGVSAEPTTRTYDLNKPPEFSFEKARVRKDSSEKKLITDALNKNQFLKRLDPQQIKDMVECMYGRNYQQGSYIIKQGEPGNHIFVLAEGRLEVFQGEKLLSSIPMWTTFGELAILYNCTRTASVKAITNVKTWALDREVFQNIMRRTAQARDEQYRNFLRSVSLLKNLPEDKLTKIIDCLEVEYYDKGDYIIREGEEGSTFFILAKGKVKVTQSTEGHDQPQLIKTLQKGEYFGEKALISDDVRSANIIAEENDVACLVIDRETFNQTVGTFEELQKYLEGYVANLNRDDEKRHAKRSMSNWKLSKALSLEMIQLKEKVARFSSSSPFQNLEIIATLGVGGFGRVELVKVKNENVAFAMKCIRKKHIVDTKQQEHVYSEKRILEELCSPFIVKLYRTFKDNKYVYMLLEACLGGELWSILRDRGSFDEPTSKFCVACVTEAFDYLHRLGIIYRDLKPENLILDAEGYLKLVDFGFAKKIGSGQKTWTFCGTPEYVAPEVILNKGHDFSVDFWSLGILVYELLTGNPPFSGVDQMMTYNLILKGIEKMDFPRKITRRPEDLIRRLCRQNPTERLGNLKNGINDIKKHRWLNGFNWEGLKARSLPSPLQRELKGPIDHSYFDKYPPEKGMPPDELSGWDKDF

panel of 442 kinases [2] = molecular target: T2, panel of 442 kinases (Homo sapiens, UniProt Q13976); settings: kinase PRKG1; for remaining activity at 1 µM: read-out: PRKG1 (% of control at 1 µM)
T2 construct: purchased Ambit Biosciences (scanMAXX KINOMEscan)
T2 sequence (Q13976 1-671): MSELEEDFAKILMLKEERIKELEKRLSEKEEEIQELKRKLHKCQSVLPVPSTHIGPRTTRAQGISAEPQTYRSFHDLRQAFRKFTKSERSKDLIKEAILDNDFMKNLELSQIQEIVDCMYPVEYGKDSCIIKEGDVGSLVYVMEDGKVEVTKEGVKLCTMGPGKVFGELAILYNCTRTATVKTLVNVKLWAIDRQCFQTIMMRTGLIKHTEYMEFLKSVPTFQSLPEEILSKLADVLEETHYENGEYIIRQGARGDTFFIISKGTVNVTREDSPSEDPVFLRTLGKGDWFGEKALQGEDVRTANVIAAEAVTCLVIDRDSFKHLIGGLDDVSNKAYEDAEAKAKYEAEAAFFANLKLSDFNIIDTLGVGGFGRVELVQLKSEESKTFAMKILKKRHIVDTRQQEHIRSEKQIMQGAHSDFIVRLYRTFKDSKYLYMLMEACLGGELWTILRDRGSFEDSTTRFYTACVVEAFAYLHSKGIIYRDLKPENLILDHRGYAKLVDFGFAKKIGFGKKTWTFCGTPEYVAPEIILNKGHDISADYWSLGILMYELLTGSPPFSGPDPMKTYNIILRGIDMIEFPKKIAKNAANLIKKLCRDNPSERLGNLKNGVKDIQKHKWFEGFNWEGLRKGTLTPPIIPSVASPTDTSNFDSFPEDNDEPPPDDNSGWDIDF

panel of 442 kinases [3] = molecular target: T3, panel of 442 kinases (Homo sapiens, UniProt Q13882); settings: BRK; for remaining activity at 1 µM: read-out: % of control at 1 µM
T3 construct: purchased Ambit Biosciences (scanMAXX KINOMEscan)
T3 sequence (Q13882 whole entry): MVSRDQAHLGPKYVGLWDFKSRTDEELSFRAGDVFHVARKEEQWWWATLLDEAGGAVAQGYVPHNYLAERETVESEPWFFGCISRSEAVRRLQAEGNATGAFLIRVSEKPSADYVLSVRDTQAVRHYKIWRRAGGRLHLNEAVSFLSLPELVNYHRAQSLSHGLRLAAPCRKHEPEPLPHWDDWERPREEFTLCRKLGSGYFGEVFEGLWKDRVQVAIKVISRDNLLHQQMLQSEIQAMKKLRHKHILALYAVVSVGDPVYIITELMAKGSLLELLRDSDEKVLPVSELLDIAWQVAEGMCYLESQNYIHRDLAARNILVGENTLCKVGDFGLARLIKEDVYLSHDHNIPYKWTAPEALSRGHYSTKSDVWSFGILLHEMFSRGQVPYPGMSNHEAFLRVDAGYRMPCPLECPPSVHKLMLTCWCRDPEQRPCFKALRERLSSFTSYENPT

panel of 442 kinases [4] = molecular target: T4, panel of 442 kinases (Homo sapiens, UniProt P11309); settings: kinase PIM1; for remaining activity at 1 µM: read-out: % of control at 1 µM
T4 construct: purchased Ambit Biosciences (scanMAXX KINOMEscan)
T4 sequence (P11309 whole entry): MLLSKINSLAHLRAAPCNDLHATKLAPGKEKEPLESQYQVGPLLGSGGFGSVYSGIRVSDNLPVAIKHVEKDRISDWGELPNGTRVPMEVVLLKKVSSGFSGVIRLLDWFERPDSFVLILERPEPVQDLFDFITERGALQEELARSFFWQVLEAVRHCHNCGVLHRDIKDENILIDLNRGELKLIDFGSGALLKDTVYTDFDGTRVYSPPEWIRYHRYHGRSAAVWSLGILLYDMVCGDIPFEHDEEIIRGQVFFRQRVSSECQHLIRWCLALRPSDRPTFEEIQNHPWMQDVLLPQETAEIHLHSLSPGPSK

panel of 442 kinases [5] = molecular target: T5, panel of 442 kinases (Homo sapiens, UniProt Q8N752); settings: CSNK1A1L; for remaining activity at 1 µM: read-out: % of control at 1 µM
T5 construct: purchased Ambit Biosciences (scanMAXX KINOMEscan)
T5 sequence (Q8N752 1-337): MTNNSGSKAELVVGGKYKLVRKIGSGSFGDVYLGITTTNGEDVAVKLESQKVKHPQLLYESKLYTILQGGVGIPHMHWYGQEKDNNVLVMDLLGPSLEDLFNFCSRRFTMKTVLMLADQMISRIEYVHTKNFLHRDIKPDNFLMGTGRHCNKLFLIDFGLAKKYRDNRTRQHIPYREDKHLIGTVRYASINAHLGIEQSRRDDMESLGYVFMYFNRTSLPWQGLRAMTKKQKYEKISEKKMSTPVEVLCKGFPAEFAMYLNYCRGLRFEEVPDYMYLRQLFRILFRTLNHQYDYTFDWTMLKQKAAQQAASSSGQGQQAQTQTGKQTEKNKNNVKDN

panel of 442 kinases [6] = molecular target: T6, panel of 442 kinases (Homo sapiens, UniProt Q9H2G2); settings: kinase SLK; for remaining activity at 1 µM: read-out: SLK (% of control at 1 µM)
T6 construct: purchased Ambit Biosciences (scanMAXX KINOMEscan)
T6 sequence (Q9H2G2 whole entry): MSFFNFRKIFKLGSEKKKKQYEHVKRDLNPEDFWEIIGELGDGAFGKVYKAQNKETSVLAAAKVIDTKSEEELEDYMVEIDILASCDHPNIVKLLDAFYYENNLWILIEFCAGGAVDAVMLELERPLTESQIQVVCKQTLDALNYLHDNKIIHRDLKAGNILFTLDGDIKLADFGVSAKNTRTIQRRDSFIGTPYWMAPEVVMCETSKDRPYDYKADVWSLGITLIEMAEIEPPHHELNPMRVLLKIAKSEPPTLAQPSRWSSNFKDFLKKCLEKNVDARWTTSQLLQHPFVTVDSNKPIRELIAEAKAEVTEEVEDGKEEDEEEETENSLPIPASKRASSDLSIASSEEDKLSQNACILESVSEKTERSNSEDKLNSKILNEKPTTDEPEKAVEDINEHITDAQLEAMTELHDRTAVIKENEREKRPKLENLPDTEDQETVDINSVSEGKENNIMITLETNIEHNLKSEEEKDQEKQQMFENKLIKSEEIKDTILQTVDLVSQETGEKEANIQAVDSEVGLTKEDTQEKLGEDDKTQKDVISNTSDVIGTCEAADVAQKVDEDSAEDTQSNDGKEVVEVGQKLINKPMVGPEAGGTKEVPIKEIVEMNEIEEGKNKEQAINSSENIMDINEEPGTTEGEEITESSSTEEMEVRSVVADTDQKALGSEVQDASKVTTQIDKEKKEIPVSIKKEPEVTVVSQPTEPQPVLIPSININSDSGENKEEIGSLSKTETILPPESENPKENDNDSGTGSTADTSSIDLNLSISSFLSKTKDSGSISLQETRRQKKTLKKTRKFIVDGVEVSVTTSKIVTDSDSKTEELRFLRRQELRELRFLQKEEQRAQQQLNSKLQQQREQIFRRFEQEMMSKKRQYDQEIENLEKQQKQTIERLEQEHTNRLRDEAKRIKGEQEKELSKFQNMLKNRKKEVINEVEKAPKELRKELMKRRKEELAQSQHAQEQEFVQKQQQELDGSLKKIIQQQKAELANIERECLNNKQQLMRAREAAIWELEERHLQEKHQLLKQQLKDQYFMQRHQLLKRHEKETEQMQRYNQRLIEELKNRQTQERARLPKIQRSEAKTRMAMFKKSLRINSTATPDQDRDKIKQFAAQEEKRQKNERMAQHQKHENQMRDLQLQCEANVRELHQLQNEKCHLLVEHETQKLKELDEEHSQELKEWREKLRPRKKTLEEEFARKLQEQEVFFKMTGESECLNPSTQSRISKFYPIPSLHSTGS

panel of 442 kinases [7] = molecular target: T7, panel of 442 kinases (Homo sapiens, UniProt Q13153); settings: kinase PAK1; for remaining activity at 1 µM: read-out: % of control at 1 µM
T7 construct: purchased Ambit Biosciences (scanMAXX KINOMEscan)
T7 sequence (Q13153 whole entry): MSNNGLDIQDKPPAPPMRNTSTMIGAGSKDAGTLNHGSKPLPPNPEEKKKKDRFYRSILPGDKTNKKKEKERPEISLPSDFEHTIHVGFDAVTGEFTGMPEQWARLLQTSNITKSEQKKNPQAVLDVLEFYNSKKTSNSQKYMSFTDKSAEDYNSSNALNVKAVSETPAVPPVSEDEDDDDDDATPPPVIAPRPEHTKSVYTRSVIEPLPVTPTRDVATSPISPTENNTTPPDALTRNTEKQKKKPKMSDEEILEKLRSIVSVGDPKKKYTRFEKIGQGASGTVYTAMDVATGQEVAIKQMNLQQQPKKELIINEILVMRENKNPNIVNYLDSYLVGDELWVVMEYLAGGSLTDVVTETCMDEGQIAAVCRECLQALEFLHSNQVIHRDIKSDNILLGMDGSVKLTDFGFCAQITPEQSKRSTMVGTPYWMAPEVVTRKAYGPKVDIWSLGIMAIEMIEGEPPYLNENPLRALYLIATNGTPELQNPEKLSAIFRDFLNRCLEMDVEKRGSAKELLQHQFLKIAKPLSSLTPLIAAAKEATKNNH

panel of 442 kinases [8] = molecular target: T8, panel of 442 kinases (Homo sapiens, UniProt Q06187); settings: BTK; for remaining activity at 1 µM: read-out: % of control at 1 µM
T8 construct: purchased Ambit Biosciences (scanMAXX KINOMEscan)
T8 sequence (Q06187 whole entry): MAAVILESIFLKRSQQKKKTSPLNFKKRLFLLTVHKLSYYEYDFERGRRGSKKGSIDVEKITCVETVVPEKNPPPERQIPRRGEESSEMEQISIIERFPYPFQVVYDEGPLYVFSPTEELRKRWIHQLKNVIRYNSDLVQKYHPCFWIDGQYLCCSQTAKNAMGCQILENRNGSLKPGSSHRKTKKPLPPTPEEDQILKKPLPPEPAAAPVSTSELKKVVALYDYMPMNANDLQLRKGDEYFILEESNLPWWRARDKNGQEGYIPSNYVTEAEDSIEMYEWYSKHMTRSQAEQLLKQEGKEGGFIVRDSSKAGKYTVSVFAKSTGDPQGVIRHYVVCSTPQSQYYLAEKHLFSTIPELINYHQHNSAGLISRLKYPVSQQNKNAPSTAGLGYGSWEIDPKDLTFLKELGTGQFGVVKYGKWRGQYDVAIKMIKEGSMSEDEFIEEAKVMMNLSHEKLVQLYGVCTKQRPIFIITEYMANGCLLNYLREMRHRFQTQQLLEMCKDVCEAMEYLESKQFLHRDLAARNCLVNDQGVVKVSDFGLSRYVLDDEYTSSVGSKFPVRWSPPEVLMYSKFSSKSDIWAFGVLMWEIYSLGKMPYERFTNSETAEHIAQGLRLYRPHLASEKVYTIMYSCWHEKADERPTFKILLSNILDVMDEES

panel of 442 kinases [9] = molecular target: T9, panel of 442 kinases (Homo sapiens, UniProt Q00532); settings: CDKL1; for remaining activity at 1 µM: read-out: % of control at 1 µM
T9 construct: purchased Ambit Biosciences (scanMAXX KINOMEscan)
T9 sequence (Q00532 whole entry): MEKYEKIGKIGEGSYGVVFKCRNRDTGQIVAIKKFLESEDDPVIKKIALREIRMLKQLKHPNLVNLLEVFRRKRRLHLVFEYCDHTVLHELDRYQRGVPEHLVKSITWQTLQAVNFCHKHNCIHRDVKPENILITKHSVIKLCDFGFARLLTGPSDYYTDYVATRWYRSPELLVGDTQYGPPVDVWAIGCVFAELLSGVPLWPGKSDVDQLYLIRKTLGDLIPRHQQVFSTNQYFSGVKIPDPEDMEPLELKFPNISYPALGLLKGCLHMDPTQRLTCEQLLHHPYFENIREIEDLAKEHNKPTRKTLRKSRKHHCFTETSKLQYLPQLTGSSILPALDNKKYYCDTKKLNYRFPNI

panel of 442 kinases [10] = molecular target: T10, panel of 442 kinases (Homo sapiens, UniProt O00506); settings: kinase YSK1; for remaining activity at 1 µM: read-out: YSK1 (% of control at 1 µM)
T10 construct: purchased Ambit Biosciences (scanMAXX KINOMEscan)
T10 sequence (O00506 whole entry): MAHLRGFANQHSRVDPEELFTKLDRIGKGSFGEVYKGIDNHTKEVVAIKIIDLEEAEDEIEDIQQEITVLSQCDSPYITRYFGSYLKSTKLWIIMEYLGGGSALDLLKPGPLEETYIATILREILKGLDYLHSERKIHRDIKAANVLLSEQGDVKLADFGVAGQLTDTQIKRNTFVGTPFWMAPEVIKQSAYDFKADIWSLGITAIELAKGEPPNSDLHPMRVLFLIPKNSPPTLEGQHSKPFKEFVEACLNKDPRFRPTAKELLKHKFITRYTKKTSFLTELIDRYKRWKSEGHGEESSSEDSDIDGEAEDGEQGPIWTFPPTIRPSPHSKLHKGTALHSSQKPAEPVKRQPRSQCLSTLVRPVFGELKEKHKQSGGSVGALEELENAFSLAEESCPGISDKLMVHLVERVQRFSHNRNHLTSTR

panel of 442 kinases [11] = molecular target: T11, panel of 442 kinases (Homo sapiens, UniProt P49841); settings: kinase GSK3B; for remaining activity at 1 µM: read-out: % of control at 1 µM
T11 construct: purchased Ambit Biosciences (scanMAXX KINOMEscan)
T11 sequence (P49841 whole entry): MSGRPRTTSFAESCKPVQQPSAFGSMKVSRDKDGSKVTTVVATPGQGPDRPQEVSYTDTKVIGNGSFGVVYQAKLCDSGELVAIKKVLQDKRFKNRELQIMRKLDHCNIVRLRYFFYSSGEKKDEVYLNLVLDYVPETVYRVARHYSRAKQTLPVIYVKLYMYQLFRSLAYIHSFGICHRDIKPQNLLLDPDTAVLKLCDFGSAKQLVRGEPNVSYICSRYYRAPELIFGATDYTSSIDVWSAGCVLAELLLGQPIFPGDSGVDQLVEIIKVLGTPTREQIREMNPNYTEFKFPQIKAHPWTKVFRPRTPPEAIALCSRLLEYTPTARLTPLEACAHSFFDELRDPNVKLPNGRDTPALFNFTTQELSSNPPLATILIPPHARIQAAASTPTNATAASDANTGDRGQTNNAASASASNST

panel of 442 kinases [12] = molecular target: T12, panel of 442 kinases (Homo sapiens, UniProt P78368); settings: CSNK1G2; for remaining activity at 1 µM: read-out: % of control at 1 µM
T12 construct: purchased Ambit Biosciences (scanMAXX KINOMEscan)
T12 sequence (P78368 whole entry): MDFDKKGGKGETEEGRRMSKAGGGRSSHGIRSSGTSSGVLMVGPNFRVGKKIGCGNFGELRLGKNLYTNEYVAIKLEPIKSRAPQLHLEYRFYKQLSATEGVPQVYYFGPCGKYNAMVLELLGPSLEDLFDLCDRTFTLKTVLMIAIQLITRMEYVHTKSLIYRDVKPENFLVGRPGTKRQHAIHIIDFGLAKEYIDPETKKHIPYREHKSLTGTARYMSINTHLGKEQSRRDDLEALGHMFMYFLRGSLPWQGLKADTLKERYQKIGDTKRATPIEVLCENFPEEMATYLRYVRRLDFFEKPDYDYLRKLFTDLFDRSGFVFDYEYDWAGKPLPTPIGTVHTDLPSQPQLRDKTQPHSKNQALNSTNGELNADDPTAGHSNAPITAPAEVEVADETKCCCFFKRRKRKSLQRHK

panel of 442 kinases [13] = molecular target: T13, panel of 442 kinases (Homo sapiens, UniProt Q13627); settings: DYRK1A; for remaining activity at 1 µM: read-out: % of control at 1 µM
T13 construct: purchased Ambit Biosciences (scanMAXX KINOMEscan)

[14] = 10 µM, read-out: % of control at 10 µM

Row | SMILES | remaining activity at 1 µM (panel of 442 kinases [1]) | remaining activity at 1 µM (panel of 442 kinases [2]) | remaining activity at 1 µM (panel of 442 kinases [3]) | remaining activity at 1 µM (panel of 442 kinases [4]) | remaining activity at 1 µM (panel of 442 kinases [5]) | remaining activity at 1 µM (panel of 442 kinases [6]) | remaining activity at 1 µM (panel of 442 kinases [7]) | remaining activity at 1 µM (panel of 442 kinases [8]) | remaining activity at 1 µM (panel of 442 kinases [9]) | remaining activity at 1 µM (panel of 442 kinases [10]) | remaining activity at 1 µM (panel of 442 kinases [11]) | remaining activity at 1 µM (panel of 442 kinases [12]) | remaining activity at 1 µM (panel of 442 kinases [13]) | also measured
1 | Nc1cc(C(F)(F)F)c(-c2cc(N3CCOCC3)nc(N3CCOCC3)n2)cn1 [Buparlisib] | 93% | 77% | 100% | 87% | 100% | 100% | 100% | 71% | 100% | 100% | 86% | 100% | 80% | remaining activity at 10 µM (panel of 442 kinases [1]; 10 µM, read-out: PRKG2 (% of control at 10 µM)): 100%; remaining activity at 10 µM (panel of 442 kinases [2]; 10 µM, read-out: PRKG1 (% of control at 10 µM)): 100%; remaining activity at 10 µM (panel of 442 kinases [3]; [14]): 100%; remaining activity at 10 µM (panel of 442 kinases [4]; [14]): 100%; remaining activity at 10 µM (panel of 442 kinases [5]; [14]): 100%; remaining activity at 10 µM (panel of 442 kinases [6]; 10 µM, read-out: SLK (% of control at 10 µM)): 100%; remaining activity at 10 µM (panel of 442 kinases [7]; [14]): 96%; remaining activity at 10 µM (panel of 442 kinases [8]; [14]): 89%; remaining activity at 10 µM (panel of 442 kinases [9]; [14]): 100%; remaining activity at 10 µM (panel of 442 kinases [10]; 10 µM, read-out: YSK1 (% of control at 10 µM)): 100%; remaining activity at 10 µM (panel of 442 kinases [11]; [14]): 100%; remaining activity at 10 µM (panel of 442 kinases [12]; [14]): 100%; remaining activity at 10 µM (panel of 442 kinases [13]; [14]): 51%
2 | Cn1c(=O)n(-c2ccc(C(C)(C)C#N)cc2)c2c3cc(-c4cnc5ccccc5c4)ccc3ncc21 [Dactolisib, 2-methyl-2-[4-(3-methyl-2-oxo-8-quinolin-3-yl-2,3-dihydroimidazo[4,5-c]quinolin-1-yl)-phenyl] propionitrile] | 84% | 95% | 90% | 100% | 100% | 89% | 100% | – | 100% | 100% | 100% | 80% | 100% | –
3 | COc1ncc(-c2ccc3nccc(-c4ccnnc4)c3c2)cc1NS(=O)(=O)c1ccc(F)cc1F [Omipalisib] | 96% | 100% | 91% | 100% | 100% | 100% | 55% | 100% | 100% | 91% | 89% | 100% | 100% | –
4 | FC(F)c1nc2ccccc2n1-c1nc(N2CCOCC2)nc(N2CCOCC2)n1 [ZSTK474, 2-(difluoromethyl)-1-[4,6-di(4-morpholinyl)-1,3,5-triazin-2-yl]-1H-benzimidazole] | 95% | 100% | 91% | 100% | 100% | 100% | 100% | 100% | 100% | 83% | 91% | 90% | 100% | –
